Results from US9980943B2, “Methods of treating muscular dystrophy” (BOARD OF REGENTS OF THE NEVADA SYSTEM OF HIGHER EDUCATION, …, priority 2013, dated 2018).

Legend:
Type in all cases: cell-based, mouse
[1] = system: α7 integrin (LacZ reporter in α7βgal+/− myoblasts); experiment: Myoblast α7+/LacZ integrin FDG assay (Burkin assay in myoblasts, 96-well); settings: 96-well; for Burkin Assay in Myoblasts, value relative to DMSO: SU9516 analogs, N=3-6; for Burkin Assay in Myoblasts, signal relative to DMSO: α7+/LacZ myoblasts
[2] = system: α7 integrin (LacZ reporter in α7+/LacZ myotubes); experiment: Myotube α7 integrin FDG assay (Burkin assay in myotubes, 96-well); settings: for Burkin Assay in Myotubes, value relative to DMSO: SU9516 analogs, 96-well, N=3-6
[3] = system: β-galactosidase in CMV-LacZ C2C12 myoblasts; experiment: CMV-LacZ secondary screen in C2C12 myoblasts (β-Gal stabilizing assay); settings: for CMV-LACZ in Myoblasts, value relative to DMSO: SU9516 analogs, C2C12 CMV-LacZ, N=2; for CMV-LACZ in Myoblasts (β-galactosidase activity relative to DMSO): CMV-LacZ C2C12 myoblasts
Summary of the method: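 β-gal stabilization was measured in C2C12 myoblasts or myotubes stably transfected with a CMV-driven LacZ construct, using the FDG β-gal assay. Compounds were tested in dose-response at 0.5, 1, 5, 10, 20 and 40 μM, with two replicates per point.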

[4] = system: β-galactosidase in CMV-LacZ C2C12 myotubes; experiment: CMV-LacZ secondary screen in C2C12 myotubes (β-Gal stabilizing assay); settings: for CMV-LACZ in Myotubes, value relative to DMSO: SU9516 analogs, C2C12 CMV-LacZ, N=2; for CMV-LACZ in Myotubes, signal relative to DMSO: C2C12 CMV-LacZ myotubes, fold relative to DMSO
Summary of the method: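 Stable CMV-LacZ C2C12 clone; six-point curve 0.5–40 μM; duplicates.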

In the case of `O=C(O)COc1ccccc1/C=C1\C(=O)Nc2ccc(Br)cc21` [MLS001196427-01], the “Burkin Assay in Myoblasts, value relative to DMSO” value ([1]; 0.5 uM) is reported as 1.02, the “Burkin Assay in Myoblasts, value relative to DMSO” value ([1]; 1 uM) is reported as 1.033 and the “Burkin Assay in Myoblasts, value relative to DMSO” value ([1]; 5 uM) is reported as 0.9384. The “Burkin Assay in Myoblasts, value relative to DMSO” value ([1]; 10 uM) was 0.9777, the “Burkin Assay in Myoblasts, value relative to DMSO” value ([1]; 20 uM) was 0.8102 and the “Burkin Assay in Myoblasts, value relative to DMSO” value ([1]; 40 uM) was 0.8763. For the same compound, the “Burkin Assay in Myotubes, value relative to DMSO” value ([2]; 0.5 uM) was 0.9194, the “Burkin Assay in Myotubes, value relative to DMSO” value ([2]; 1 uM) was 1.02 and the “Burkin Assay in Myotubes, value relative to DMSO” value ([2]; 5 uM) was 1.022. The “Burkin Assay in Myotubes, value relative to DMSO” value ([2]; 10 uM) was 1.135, the “Burkin Assay in Myotubes, value relative to DMSO” value ([2]; 20 uM) was 0.7942 and the “Burkin Assay in Myotubes, value relative to DMSO” value ([2]; 40 uM) was 0.9365. The “CMV-LACZ in Myoblasts, value relative to DMSO” value ([3]; 0.5 uM) was 0.7219, the “CMV-LACZ in Myoblasts, value relative to DMSO” value ([3]; 1 uM) was 1.0356 and the “CMV-LACZ in Myoblasts, value relative to DMSO” value ([3]; 5 uM) was 0.9957. For the same compound, the “CMV-LACZ in Myoblasts, value relative to DMSO” value ([3]; 10 uM) was 1.1811, the “CMV-LACZ in Myoblasts, value relative to DMSO” value ([3]; 20 uM) was 0.7144 and the “CMV-LACZ in Myoblasts, value relative to DMSO” value ([3]; 40 uM) was 0.9563. For the same compound, the “CMV-LACZ in Myotubes, value relative to DMSO” value ([4]; 0.5 uM) was 0.9363, the “CMV-LACZ in Myotubes, value relative to DMSO” value ([4]; 1 uM) was 1.0704 and the “CMV-LACZ in Myotubes, value relative to DMSO” value ([4]; 5 uM) was 0.8423. The “CMV-LACZ in Myotubes, value relative to DMSO” value ([4]; 10 uM) was 0.9282, the “CMV-LACZ in Myotubes, value relative to DMSO” value ([4]; 20 uM) was 0.9918 and the “CMV-LACZ in Myotubes, value relative to DMSO” value ([4]; 40 uM) was 0.9000.
For `O=C(c1ccccc1)N1CCN(S(=O)(=O)c2cccs2)CC1` [MLS001035690-01], the “Burkin Assay in Myoblasts, signal relative to DMSO” value ([1]; 0.5 uM) was 1.051, the “Burkin Assay in Myoblasts, signal relative to DMSO” value ([1]; 1 uM) was 1.151 and the “Burkin Assay in Myoblasts, signal relative to DMSO” value ([1]; 5 uM) was 1.186. The “Burkin Assay in Myoblasts, signal relative to DMSO” value ([1]; 10 uM) was 0.9872, the “Burkin Assay in Myoblasts, signal relative to DMSO” value ([1]; 20 uM) was 1.055 and the “Burkin Assay in Myoblasts, signal relative to DMSO” value ([1]; 40 uM) was 1.091. The “Burkin Assay in Myotubes, α7 integrin LacZ reporter signal relative to DMSO” value ([2]; 0.5 uM) was 1.111, the “Burkin Assay in Myotubes, α7 integrin LacZ reporter signal relative to DMSO” value ([2]; 1 uM) was 1.072 and the “Burkin Assay in Myotubes, α7 integrin LacZ reporter signal relative to DMSO” value ([2]; 5 uM) was 1.073. For the same compound, the “Burkin Assay in Myotubes, α7 integrin LacZ reporter signal relative to DMSO” value ([2]; 10 uM) was 0.9358, the “Burkin Assay in Myotubes, α7 integrin LacZ reporter signal relative to DMSO” value ([2]; 20 uM) was 0.972 and the “Burkin Assay in Myotubes, α7 integrin LacZ reporter signal relative to DMSO” value ([2]; 40 uM) was 0.9238. For the same compound, the “CMV-LACZ in Myoblasts (β-galactosidase activity relative to DMSO)” value ([3]; 0.5 uM) was 0.9819, the “CMV-LACZ in Myoblasts (β-galactosidase activity relative to DMSO)” value ([3]; 1 uM) was 1.0406 and the “CMV-LACZ in Myoblasts (β-galactosidase activity relative to DMSO)” value ([3]; 5 uM) was 0.9910. For the same compound, the “CMV-LACZ in Myoblasts (β-galactosidase activity relative to DMSO)” value ([3]; 10 uM) was 1.2020, the “CMV-LACZ in Myoblasts (β-galactosidase activity relative to DMSO)” value ([3]; 20 uM) was 1.3585 and the “CMV-LACZ in Myoblasts (β-galactosidase activity relative to DMSO)” value ([3]; 40 uM) was 0.9178. The “CMV-LACZ in Myotubes, signal relative to DMSO” value ([4]; 0.5 uM) was 1.0474, the “CMV-LACZ in Myotubes, signal relative to DMSO” value ([4]; 1 uM) was 0.8644 and the “CMV-LACZ in Myotubes, signal relative to DMSO” value ([4]; 5 uM) was 1.1552. The “CMV-LACZ in Myotubes, signal relative to DMSO” value ([4]; 10 uM) was 1.1317, the “CMV-LACZ in Myotubes, signal relative to DMSO” value ([4]; 20 uM) was 1.1976 and the “CMV-LACZ in Myotubes, signal relative to DMSO” value ([4]; 40 uM) was 1.0976.
In the case of `COc1ccc(C(=O)/C=C2/C(=O)Nc3ccccc32)cc1` [MLS001163848-01], the “Burkin Assay in Myoblasts, value relative to DMSO” value ([1]; 0.5 uM) is reported as 1.002, the “Burkin Assay in Myoblasts, value relative to DMSO” value ([1]; 1 uM) is reported as 0.8906 and the “Burkin Assay in Myoblasts, value relative to DMSO” value ([1]; 5 uM) is reported as 0.4854. The “Burkin Assay in Myoblasts, value relative to DMSO” value ([1]; 10 uM) was 0.3141, the “Burkin Assay in Myoblasts, value relative to DMSO” value ([1]; 20 uM) was 0.297 and the “Burkin Assay in Myoblasts, value relative to DMSO” value ([1]; 40 uM) was 0.1444. The “Burkin Assay in Myotubes, value relative to DMSO” value ([2]; 0.5 uM) was 1.0964, the “Burkin Assay in Myotubes, value relative to DMSO” value ([2]; 1 uM) was 1.045 and the “Burkin Assay in Myotubes, value relative to DMSO” value ([2]; 5 uM) was 0.9587. For the same compound, the “Burkin Assay in Myotubes, value relative to DMSO” value ([2]; 10 uM) was 0.7469, the “Burkin Assay in Myotubes, value relative to DMSO” value ([2]; 20 uM) was 0.6878 and the “Burkin Assay in Myotubes, value relative to DMSO” value ([2]; 40 uM) was 0.4876. The “CMV-LACZ in Myoblasts, value relative to DMSO” value ([3]; 0.5 uM) was 1.1146, the “CMV-LACZ in Myoblasts, value relative to DMSO” value ([3]; 1 uM) was 0.9620 and the “CMV-LACZ in Myoblasts, value relative to DMSO” value ([3]; 5 uM) was 0.9336. For the same compound, the “CMV-LACZ in Myoblasts, value relative to DMSO” value ([3]; 10 uM) was 1.0762, the “CMV-LACZ in Myoblasts, value relative to DMSO” value ([3]; 20 uM) was 2.1030 and the “CMV-LACZ in Myoblasts, value relative to DMSO” value ([3]; 40 uM) was 2.2215. The “CMV-LACZ in Myotubes, value relative to DMSO” value ([4]; 0.5 uM) was 1.2133, the “CMV-LACZ in Myotubes, value relative to DMSO” value ([4]; 1 uM) was 0.9638 and the “CMV-LACZ in Myotubes, value relative to DMSO” value ([4]; 5 uM) was 1.1937. The “CMV-LACZ in Myotubes, value relative to DMSO” value ([4]; 10 uM) was 4.2586, the “CMV-LACZ in Myotubes, value relative to DMSO” value ([4]; 20 uM) was 6.7729 and the “CMV-LACZ in Myotubes, value relative to DMSO” value ([4]; 40 uM) was 6.8624.
